Measurements: patent US20190343908A1, “Therapeutic Combination for the Treatment of Cancer” (Nerium Biotechnology Inc., priority 2011, published 2019)

System: HCT-15 (colorectal cancer)
Experiment: Crystal Violet viability assay, HCT-15
Type: cell-based, human
Design: key to CVE Average: absorbance at 570 nm (second wavelength subtracted)
Settings: for CVE Average 24 h / CVE Average 48 h / CVE Average 72 h: HCT-15, Run 1
Text: The Sulforhodamine B and Crystal Violet assays provide information about protein and were used to complement the Methyl-Tetrazolium dye assay. […] It is used for the quantification of cellular proteins of cultured cells. The assay using Crystal Violet, a dye that binds electrostatically to proteins and stains DNA, provides a reliable, simple assay for measuring viability of cells.
The Methyl Tetrazolium, Sulforhodamine B, and Crystal Violet assays were used to assess cell viabilities. The incubation times were 24 hours, 48 hours, and 72 hours. The Nerium oleander extract Anvirzel™ (a hot water extract of oleander obtained from Salud Integral, Honduras) was tested in concentrations ranging from 0.01 ng/mL to 10 ng/mL.
Cells were detached by trypsinization (Trypsin-0.25% EDTA, Invitrogen, 25200-072) during the logarithmic phase of culture growth and plated in 96-well plates (18.000 cells/well) (Corning, Costar 359) in a final volume of 200 μl of medium per well. […] The absorbance was measured after 24 hours, 48 hours, and 72 hours of incubation.
For the Crystal Violet assay, the medium was removed from the 96-well plates, the plates rinsed with PBS (Sigma, P3813) and then the cells were […] by the addition of 10% formalin (MERCK, 1.04003.2500) for 20 minutes at RT. Formalin was removed and 0.25% aqueous crystal violet (Sigma, HT901), dissolved in water, was added for 10 minutes at RT. Unbound Crystal Violet was rinsed by washing with water and finally 33% acetic acid was added to dissolve the dye.
The optical density of each plate was measured on a μQuant spectrophotometer and the data were analyzed with Gen5 software (μQuant Biomolecular Spectrophotometer MQX200 and Gen5™ Microplate Data Collection & Analysis software, BioTek® Instruments. Inc, April 2008). Absorbance was measured at 570 nm for all assays and a second wavelength was measured in order to subtract noise. For the Methyl-Tetrazolium assay this second wavelength was 630 nm and for the Sulforhodamine B and Crystal Violet assays it was 690 nm.

N.N.[Cl][Pt][Cl] [cisplatin]
CVE Average 24 h (0.1 μg/ml CDDP): 0.787
CVE Average 48 h (0.1 μg/ml CDDP): 0.99
CVE Average 72 h (0.1 μg/ml CDDP): 2.312
CVE Average 24 h (1 μg/ml CDDP): 0.451
CVE Average 48 h (1 μg/ml CDDP): 0.187
CVE Average 72 h (1 μg/ml CDDP): 0.425
CVE Average 24 h (10 μg/ml CDDP): 0.59
CVE Average 48 h (10 μg/ml CDDP): 0.277
CVE Average 72 h (10 μg/ml CDDP): 0.282
CVE Average 24 h (100 μg/ml CDDP): 0.456
CVE Average 48 h (100 μg/ml CDDP): 0.214
CVE Average 72 h (100 μg/ml CDDP): 0.231
CVE Average (Run 2, 24 h, 0.1 μg/ml CDDP): 0.766
CVE Average (Run 2, 24 h, 1 μg/ml CDDP): 0.387
CVE Average (Run 2, 24 h, 10 μg/ml CDDP): 0.824
CVE Average (Run 2, 24 h, 100 μg/ml CDDP): 0.41
CVE Average (Run 2, 48 h, 0.1 μg/ml CDDP): 1.542
CVE Average (Run 2, 48 h, 1 μg/ml CDDP): 0.533
CVE Average (Run 2, 48 h, 10 μg/ml CDDP): 0.742
CVE Average (Run 2, 48 h, 100 μg/ml CDDP): 0.378
CVE Average (Run 2, 72 h, 0.1 μg/ml CDDP): 2.449
CVE Average (Run 2, 72 h, 1 μg/ml CDDP): 0.533
CVE Average (Run 2, 72 h, 10 μg/ml CDDP): 0.46
CVE Average (Run 2, 72 h, 100 μg/ml CDDP): 0.327
CVE Average (Run 3, 24 h, 0.1 μg/ml CDDP): 2.043
CVE Average (Run 3, 24 h, 1 μg/ml CDDP): 0.459
CVE Average (Run 3, 24 h, 10 μg/ml CDDP): 1.477
CVE Average (Run 3, 24 h, 100 μg/ml CDDP): 0.473
CVE Average (Run 3, 48 h, 0.1 μg/ml CDDP): 1.335
CVE Average (Run 3, 48 h, 10 μg/ml CDDP): 0.363
CVE Average (Run 3, 48 h, 100 μg/ml CDDP): 0.114
CVE Average (Run 3, 72 h, 0.1 μg/ml CDDP): 2.814
CVE Average (Run 3, 72 h, 1 μg/ml CDDP): 0.623
CVE Average (Run 3, 72 h, 10 μg/ml CDDP): 0.669
CVE Average (Run 3, 72 h, 100 μg/ml CDDP): 0.499
